Patent publication US20240180872A1, “METHODS AND COMPOUNDS OF CANNABIDIOL, MELATONIN AND AKBA FOR TREATING PANCREATIC CANCER” (priority 2021, published 2024)

System: pancreatic adenocarcinoma associated genes
Assay: TaqMan Array gene expression in MIAPaCa-2, normalized for GAPDH
Type: cell-based, Human
Conditions: Mia-PACA-2, 24 hs, CBD 3.8, MLT 200, AKBA 7.5 micrograms/ml; for GAPDH relative expression: GAPDH is the normalizer; for PK3CB relative expression / PK3CD relative expression / AKT1 relative expression / AKT2 relative expression / AKT3 relative expression / IGF1 relative expression / PK3CA relative expression / PK3R1 relative expression / BRCA2 relative expression / MDM2 relative expression / TP53 relative expression / HSP90AA1 relative expression / NFKB1 relative expression / NFKB2 relative expression / REL relative expression / RELA relative expression / RELB relative expression / RHOA relative expression / RHOB relative expression / BRAF relative expression / E2F1 relative expression / E2F3 relative expression / E2F4 relative expression / EGF relative expression / EGFR relative expression / ELK1 relative expression / ERBB2 relative expression / GRB2 relative expression / HBEGF relative expression / KRAS relative expression / MAP2K1 relative expression / MAP2K2 relative expression / MAPK1 relative expression / MAPK3 relative expression / RAF1 relative expression / RB1 relative expression / SOS1 relative expression / TGFB2 relative expression / TGFB3 relative expression / TGFBR1 relative expression / SMAD2 relative expression / SMAD3 relative expression / SMAD4 relative expression / TGFA relative expression / TGFB1 relative expression / TGFBR2 relative expression / FIGF relative expression / VEGFA relative expression / VEGFB relative expression / VEGFC relative expression / BCL2L1 relative expression / BCL2 relative expression / BIRC5 relative expression / CCNA2 relative expression / CCNB1 relative expression / CCND1 relative expression / CCND2 relative expression / CCNE1 relative expression / CCNE2 relative expression / CDC42 relative expression / CDK2 relative expression / CDK4 relative expression / CDKN1A relative expression / CDKN1B relative expression / CDKN2A relative expression / CDKN2B relative expression / CDKN2C relative expression / CDKN2D relative expression / IL6 relative expression / JAK1 relative expression / JAK2 relative expression / JAK3 relative expression / STAT1 relative expression / STAT2 relative expression / STAT3 relative expression / STAT6 relative expression / STATSB relative expression / MMP1 relative expression / MMP2 relative expression / MMP3 relative expression / MMP7 relative expression / MMP9 relative expression / PTGS2 relative expression / RAC1 relative expression / RAC2 relative expression / KIT relative expression / NOTCH1 relative expression / SRC relative expression: normalized for GAPDH; for PK3CB relative expression / PK3CD relative expression: Akt pathways; for AKT1 relative expression / AKT2 relative expression / AKT3 relative expression / IGF1 relative expression / PK3CA relative expression / PK3R1 relative expression: Akt-pathways; for BRCA2 relative expression / MDM2 relative expression / TP53 relative expression: DNA repair; for HSP90AA1 relative expression: Heat sock protein; for NFKB1 relative expression / NFKB2 relative expression / REL relative expression / RELA relative expression / RELB relative expression / RHOA relative expression / RHOB relative expression: NfkB pathways; for BRAF relative expression / E2F1 relative expression / E2F3 relative expression / E2F4 relative expression / EGF relative expression / EGFR relative expression / ELK1 relative expression / ERBB2 relative expression / GRB2 relative expression / HBEGF relative expression / KRAS relative expression / MAP2K1 relative expression / MAP2K2 relative expression / MAPK1 relative expression / MAPK3 relative expression / RAF1 relative expression / RB1 relative expression / SOS1 relative expression: Ras pathways; for TGFB2 relative expression / TGFB3 relative expression / TGFBR1 relative expression: TGF patways; for SMAD2 relative expression / SMAD3 relative expression / SMAD4 relative expression / TGFA relative expression / TGFB1 relative expression / TGFBR2 relative expression: TGF-patways; for FIGF relative expression / VEGFA relative expression / VEGFB relative expression / VEGFC relative expression: angiogenesis; for BCL2L1 relative expression / BCL2 relative expression / BIRC5 relative expression: apoptosis; for CCNA2 relative expression / CCNB1 relative expression / CCND1 relative expression / CCND2 relative expression / CCNE1 relative expression / CCNE2 relative expression / CDC42 relative expression / CDK2 relative expression / CDK4 relative expression / CDKN1A relative expression / CDKN1B relative expression / CDKN2A relative expression / CDKN2B relative expression / CDKN2C relative expression / CDKN2D relative expression: cell cycle; for IL6 relative expression / JAK1 relative expression / JAK2 relative expression / JAK3 relative expression / STAT1 relative expression / STAT2 relative expression / STAT3 relative expression / STAT6 relative expression / STATSB relative expression: inflammation; for MMP1 relative expression / MMP2 relative expression / MMP3 relative expression / MMP7 relative expression / MMP9 relative expression / PTGS2 relative expression / RAC1 relative expression / RAC2 relative expression: invasion; for KIT relative expression / NOTCH1 relative expression / SRC relative expression: proliferation
Method: Total RNA from untreated or CBD, MLT, AKBA alone and in combination treated cell lines was extracted using Rneasy Mini kit (Qiagen, Milan, Italy). One microgram of total RNA from each sample was subjected to reverse transcription in a total volume of 20 μL using the High-Capacity cDNA Archive Kit (Applied Biosystem, Foster City, […], USA) according to the instructions. cDNAs were analyzed by qRT-PCR performed using an IQ5 Multicolor Real time PCR Detection system. Quantitative real-time gene expression was performed with the TaqMan® Array Human Pancreatic Adenocarcinoma 96-well Plate, containing 92 assays to pancreatic adenocarcinoma associated genes and 4 assays to candidate endogenous control genes, was purchased (Thermo Fisher, Grand Island, NY, USA) and used to evaluate the treatments in modulating PDAC-related genes (Table 1). Measurement of different housekeeping genes (GAPDH; HPRT1; GUSB) on the samples was used to normalize mRNA content. The gene expression levels of treated cell lines were expressed as relative fold compared with untreated or vehicle-treated cells.
To elucidate the molecular events induced by CBD, MLT and AKBA alone and in combination, 92 genes involved in PDAC progression and aggressiveness were evaluated by Taqman Array. Both cell lines were treated with CBD, MLT and AKBA alone and in combination, and the molecular pathways of PDAC associated gene were evaluated.
Target mRNA levels were normalized for GAPDH expression.

C=C(C)[C@@H]1CCC(C)=C[C@H]1c1c(O)cc(CCCCC)cc1O [CBD, 2-[(1R,6R)-3-methyl-6-prop-1-en-2-ylcyclohex-2-en-1-yl]-5-pentylbenzene-1,3-diol]
GAPDH relative expression: 1.00 | PK3CB relative expression: 0.10 | PK3CD relative expression: 0.08 | AKT1 relative expression: 0.10 | AKT2 relative expression: 0.54 | AKT3 relative expression: 0.00 | IGF1 relative expression: 0.00 | PK3CA relative expression: 0.03 | PK3R1 relative expression: 0.04 | BRCA2 relative expression: 0.16 | MDM2 relative expression: 0.04 | TP53 relative expression: 0.22 | HSP90AA1 relative expression: 0.42 | NFKB1 relative expression: 0.04 | NFKB2 relative expression: 0.15 | REL relative expression: 0.11 | RELA relative expression: 0.06 | RELB relative expression: 0.26 | RHOA relative expression: 0.34 | RHOB relative expression: 0.04 | BRAF relative expression: 0.22 | E2F1 relative expression: 0.15 | E2F3 relative expression: 0.08 | E2F4 relative expression: 0.19 | EGF relative expression: 0.00 | EGFR relative expression: 0.21 | ELK1 relative expression: 0.09 | ERBB2 relative expression: 0.02 | GRB2 relative expression: 0.13 | HBEGF relative expression: 0.13 | KRAS relative expression: 0.09 | MAP2K1 relative expression: 0.00 | MAP2K2 relative expression: 0.08 | MAPK1 relative expression: 0.07 | MAPK3 relative expression: 0.01 | RAF1 relative expression: 0.01 | RB1 relative expression: 0.06 | SOS1 relative expression: 0.06 | TGFB2 relative expression: 0.08 | TGFB3 relative expression: 0.00 | TGFBR1 relative expression: 0.02 | SMAD2 relative expression: 0.06 | SMAD3 relative expression: 0.18 | SMAD4 relative expression: 0.07 | TGFA relative expression: 0.64 | TGFB1 relative expression: 0.06 | TGFBR2 relative expression: 0.00 | FIGF relative expression: 0.11 | VEGFA relative expression: 0.02 | VEGFB relative expression: 0.06 | VEGFC relative expression: 0.03 | BCL2L1 relative expression: 0.26 | BCL2 relative expression: 0.00 | BIRC5 relative expression: 0.11 | CCNA2 relative expression: 0.01 | CCNB1 relative expression: 0.37 | CCND1 relative expression: 0.11 | CCND2 relative expression: 0.00 | CCNE1 relative expression: 0.10 | CCNE2 relative expression: 0.12 | CDC42 relative expression: 0.05 | CDK2 relative expression: 0.15 | CDK4 relative expression: 0.25 | CDKN1A relative expression: 0.04 | CDKN1B relative expression: 0.11 | CDKN2A relative expression: 0.26 | CDKN2B relative expression: 0.42 | CDKN2C relative expression: 0.03 | CDKN2D relative expression: 0.04 | IL6 relative expression: 0.00 | JAK1 relative expression: 0.27 | JAK2 relative expression: 0.01 | JAK3 relative expression: 0.01 | STAT1 relative expression: 0.11 | STAT2 relative expression: 0.04 | STAT3 relative expression: 0.06 | STAT6 relative expression: 0.79 | STATSB relative expression: 0.03 | MMP1 relative expression: 0.00 | MMP2 relative expression: 0.07 | MMP3 relative expression: 0.00 | MMP7 relative expression: 0.01 | MMP9 relative expression: 0.01 | PTGS2 relative expression: 0.00 | RAC1 relative expression: 0.11 | RAC2 relative expression: 0.01 | KIT relative expression: 0.00 | NOTCH1 relative expression: 0.02 | SRC relative expression: 0.03

COc1ccc2[nH]cc(CCNC(C)=O)c2c1 [MLT, N-[2-(5-methoxy-1H-indol-3-yl)ethyl]acetamide]
GAPDH relative expression: 1.00 | PK3CB relative expression: 0.15 | PK3CD relative expression: 0.07 | AKT1 relative expression: 0.09 | AKT2 relative expression: 0.55 | AKT3 relative expression: 0.00 | IGF1 relative expression: 0.00 | PK3CA relative expression: 0.00 | PK3R1 relative expression: 0.03 | BRCA2 relative expression: 0.40 | MDM2 relative expression: 0.00 | TP53 relative expression: 0.26 | HSP90AA1 relative expression: 0.00 | NFKB1 relative expression: 0.11 | NFKB2 relative expression: 0.02 | REL relative expression: 0.09 | RELA relative expression: 0.00 | RELB relative expression: 0.06 | RHOA relative expression: 0.07 | RHOB relative expression: 0.03 | BRAF relative expression: 0.16 | E2F1 relative expression: 0.16 | E2F3 relative expression: 0.09 | E2F4 relative expression: 0.19 | EGF relative expression: 0.00 | EGFR relative expression: 0.19 | ELK1 relative expression: 0.11 | ERBB2 relative expression: 0.05 | GRB2 relative expression: 0.28 | HBEGF relative expression: 0.46 | KRAS relative expression: 0.01 | MAP2K1 relative expression: 0.04 | MAP2K2 relative expression: 0.09 | MAPK1 relative expression: 0.03 | MAPK3 relative expression: 0.01 | RAF1 relative expression: 0.07 | RB1 relative expression: 0.03 | SOS1 relative expression: 0.07 | TGFB2 relative expression: 0.00 | TGFB3 relative expression: 0.00 | TGFBR1 relative expression: 0.00 | SMAD2 relative expression: 0.21 | SMAD3 relative expression: 0.24 | SMAD4 relative expression: 0.09 | TGFA relative expression: 0.20 | TGFB1 relative expression: 0.04 | TGFBR2 relative expression: 0.00 | FIGF relative expression: 0.14 | VEGFA relative expression: 0.02 | VEGFB relative expression: 0.04 | VEGFC relative expression: 0.00 | BCL2L1 relative expression: 0.26 | BCL2 relative expression: 0.00 | BIRC5 relative expression: 0.16 | CCNA2 relative expression: 0.09 | CCNB1 relative expression: 0.40 | CCND1 relative expression: 0.12 | CCND2 relative expression: 0.00 | CCNE1 relative expression: 0.13 | CCNE2 relative expression: 0.09 | CDC42 relative expression: 0.00 | CDK2 relative expression: 0.09 | CDK4 relative expression: 0.20 | CDKN1A relative expression: 0.08 | CDKN1B relative expression: 0.11 | CDKN2A relative expression: 0.20 | CDKN2B relative expression: 1.98 | CDKN2C relative expression: 0.17 | CDKN2D relative expression: 0.05 | IL6 relative expression: 0.00 | JAK1 relative expression: 0.02 | JAK2 relative expression: 0.02 | JAK3 relative expression: 0.00 | STAT1 relative expression: 0.13 | STAT2 relative expression: 0.00 | STAT3 relative expression: 0.08 | STAT6 relative expression: 0.01 | STATSB relative expression: 0.49 | MMP1 relative expression: 0.08 | MMP2 relative expression: 0.00 | MMP3 relative expression: 0.01 | MMP7 relative expression: 0.01 | MMP9 relative expression: 0.04 | PTGS2 relative expression: 0.03 | RAC1 relative expression: 0.00 | RAC2 relative expression: 0.01 | KIT relative expression: 0.01 | NOTCH1 relative expression: 0.38 | SRC relative expression: 0.07
